Assay type in all cases: physicochemical
A short description of series [1]: Fractions of Form B characterized with TG, DSC and IR. Details: key to IR: ~Hydrate, Ref: ~hydrate, Ref: identical with reference. From the text:
Different fractions of Form B were characterized with thermogravimetry (TG), differential scanning calorimetry (DSC) and infrared spectroscopy (IR).

A short description of series [2]: Aqueous solubility in solvents with different pH (excess solute equilibrated at 20° C., UV spectrometry). As to the method: Further solubility investigations were performed in function of pH. […] An excess of the solute was equilibrated with the solvent at 20° C. for at least 24 hours. After removing the undissolved compound, the concentration in solution was determined using UV spectrometry.
Aqueous solubilities of Form B were measured in solvents with different pH. An excess of the solute was equilibrated with the solvent at 20° C. for at least 24 hours. After removing the undissolved compound, the concentration in solution was determined using UV spectrometry.
Aqueous solubilities of Form K were measured in solvents with different pH. An excess of the solute was equilibrated with the solvent at 20° C. for at least 48 hours. After removing the undissolved compound, the concentration in solution was determined using UV spectrometry.

A short description of series [3]: Adsorption-Desorption tests (vapor sorption, weight change with respect to atmospheric humidity, 25° C.). Here is the method: drying temperature: 40° C.
equilibrium: ≤0.05% in 5 min. or 60 min.
data interval: 0.05% or 2 min.
At the drying step about 0.6% weight loss was registered.
About 21 mg of Form K were transferred into a VTI vapor sorption analyzer model SGA100 and the weight change with respect to the atmospheric humidity was recorded at the following conditions:
drying temperature: 30° C.
data interval: 0.05% or 2.0 min.
Form K is hygroscopic. […] Form K adsorbed up to 1.5% water at high relative humidity.
A different study of the adsorption and desorption of water by Form K at 25° C. at different conditions of relative humidity was investigated on an amount of about 18 mg of the mesylate solvate. The weight change as a function of relative humidity was registered.

Setting [4] is: initial drying step (drying temperature 40° C. Form A, 30° C. Form K).
Where [5] appears, read: different study, about 18 mg, 25° C., FIG. 26.

≈ marks a conversion by molar mass, not a printed value.

This is an account of results in US10858369B2, “Pseudopolymorphic forms of a HIV protease inhibitor” (Janssen Sciences Ireland Unlimited Company, priority 2002, dated 2020).

For the molecule `CC(C)CN(C[C@@H](O)[C@H](Cc1ccccc1)NC(=O)OC1CO[C@H]2OCC[C@@H]12)S(=O)(=O)c1ccc(N)cc1` (single isomer, unassigned) [Form B fraction 1], in series [1] (after ADS/DES), the IR entry is “±Hydrate,” and the “TG % weight change <100° C.” value is 4.30%. In addition, in series [1] (fraction as such), the “DSC Max (° C.)” value worked out at 69.1 °C; the IR entry is “Hydrate, Ref”; the “TG % weight change <100° C.” value is 5.65%.
As for `CC(C)CN(C[C@@H](O)[C@H](Cc1ccccc1)NC(=O)OC1CO[C@H]2OCC[C@@H]12)S(=O)(=O)c1ccc(N)cc1` (single isomer, unassigned) [Form B fraction 2], in series [1] (after 5 d 40° C./75% RH), the “DSC Max (° C.)” value worked out at 74.1 °C; the IR result was “~Hydrate, Ref”; the “TG % weight change <100° C.” value came out at 3.56%. Besides, in series [1] (fraction as such), the “DSC Max (° C.)” value was 75.6 °C; the IR result is on record as “~Hydrate, Ref”; the “TG % weight change <100° C.” value was determined as 5.91%.
On to `CC(C)CN(C[C@@H](O)[C@H](Cc1ccccc1)NC(=O)OC1CO[C@H]2OCC[C@@H]12)S(=O)(=O)c1ccc(N)cc1` (single isomer, unassigned) [Form B fraction 3], for which, in series [1] (after 5 d 40° C./75% RH), the “DSC Extra (° C.)” value worked out at 62.8 °C, the “DSC Max (° C.)” value was found to be 77.4 °C, the IR result is “±Hydrate,” and the “TG % weight change <100° C.” value is 2.33%. In series [1] (fraction as such), the “DSC Extra (° C.)” value worked out at 67.8 °C, the “DSC Max (° C.)” value amounted to 77.0 °C, the IR result was “±Hydrate,” and the “TG % weight change <100° C.” value was determined as 3.13%.
A word on the thermodynamic solubility: it is the concentration in solution at equilibrium with solid. Consider `CC(C)CN(C[C@@H](O)[C@H](Cc1ccccc1)NC(=O)O[C@H]1CO[C@H]2OCC[C@H]21)S(=O)(=O)c1ccc(N)cc1` [Form B, (3R,3aS,6aR)-hexahydrofuro [2,3-b] furan-3-yl (1S,2R)-3-[[(4-aminophenyl)sulfonyl] (isobutyl)amino]-1-benzyl-2-hydroxypropylcarbamate], for which the solubility in series [2] (0.1N HCl (pH 1.1), at least 24 hours) is 150 (pH 1.1) mg/100 ml solution; in series [2] (Buffer pH 2 (citrate/HCl) (pH 2.0), at least 24 hours) it was 23 (pH 2.0) mg/100 ml solution; in series [2] (Buffer pH 3 (citrate/HCl) (pH 3.0), at least 24 hours), 13 (pH 3.0) mg/100 ml solution; in series [2] (Buffer pH 4 (citrate/HCl) (pH 4.0), at least 24 hours), 12 (pH 4.0) mg/100 ml solution. The solubility (thermodynamic) in series [2] (pH 0.14, aqueous buffer, 1.0N HCl (pH 0.14), at least 24 hours) amounted to 5100 µg/mL (≈ 9310 µM); in series [2] (pH 5.1, water, Water (pH 5.1), at least 24 hours) it was 100 µg/mL (≈ 183 µM). For the same molecule, the hygroscopicity entry in series [3] (25° C.) is given as “hygroscopic”. In series [3] (25° C.), the “obtained product after ADS/DES” value is “mixture of hydrate and amorphous product”. The “water remained on the sample after the desorption cycle” value in series [3] (25° C.) is given as “about 1.2%”. Also, in series [3] (setting [4]), the “weight loss at the drying step” value is given as “about 5.6%”.
`CC(C)CN(C[C@@H](O)[C@H](Cc1ccccc1)NC(=O)O[C@H]1CO[C@H]2OCC[C@H]21)S(=O)(=O)c1ccc(N)cc1` [Form K, (3R,3aS,6aR)-hexahydrofuro [2,3-b] furan-3-yl (1S,2R)-3-[[(4-aminophenyl)sulfonyl] (isobutyl)amino]-1-benzyl-2-hydroxypropylcarbamate]: in series [2] (20% HPβCD in water (pH 1.6), at least 48 hours), the solubility is reported as 2100 (pH 1.6) mg/100 ml solution. For the same molecule, the solubility (thermodynamic) in series [2] (pH 2, aqueous buffer, 0.01N HCl (pH 2.0), at least 48 hours) was determined as 240 µg/mL (≈ 438 µM); in series [2] (pH 2, aqueous buffer, Buffer pH 2 (citrate/HCl) (pH 2.0), at least 48 hours) it was 210 µg/mL (≈ 383 µM); in series [2] (pH 3, aqueous buffer, Buffer pH 3 (citrate/HCl) (pH 3.0), at least 48 hours), 120 µg/mL (≈ 219 µM); in series [2] (pH 3.3, water, Water (pH 3.3), at least 48 hours), 190 µg/mL (≈ 347 µM); in series [2] (pH 4, aqueous buffer, Buffer pH 4 (citrate/HCl) (pH 4.0), at least 48 hours) it was 110 µg/mL (≈ 201 µM). For the same molecule, the hygroscopicity result is recorded as “hygroscopic” in series [3] (25° C.) and “slightly hygroscopic” in series [3] (setting [5]). The “drying of the product during the desorption cycle” value in series [3] (25° C., about 21 mg, FIG. 25) is “dried completely”; in series [3] (setting [5]) it was “dried completely”. The “weight loss at the drying step” value is recorded as “about 0.6%” in series [3] (different study, about 18 mg of the mesylate solvate, FIG. 26) and 0.3% in series [3] (setting [4]).
